Measurements reported in patent US4876269A (priority 1987, dated 1989).
Where two headings read alike, the source gives them in different places.

Columns and labels:
[1] = parameters: species or system male white mice (CF1); conditions: mouse, in vivo; for ED50 (effective analgesic dose in 50% of the mice), p.o.: po; for ED50 (effective analgesic dose in 50% of the mice), s.c.: sc
kappa receptor [2] = conditions: rat, in vivo; cited from earlier work
kappa receptor [3] = conditions: rat, in vivo

SMILES	ED50 (effective analgesic dose in 50% of the mice), p.o. [1] [mg/kg]	ED50 (effective analgesic dose in 50% of the mice), s.c. [1] [mg/kg]	other results
CN(C(=O)Cc1ccc(C(F)(F)F)cc1)[C@@H]1c2ccccc2CC[C@H]1N1CCCC1 (relative stereo) [Example 12]	54.	19.	
CN(C(=O)Cc1ccc(Cl)c(Cl)c1)[C@@H]1c2c(ccc3ccccc23)CC[C@H]1N1CCCC1 (relative stereo) [Example 69]	16.	3.0	
CN(C(=O)Cc1ccccc1)[C@@H]1c2ccccc2OC[C@H]1N1CCCC1.Cl (relative stereo) [Example 19, trans-N-methyl-N-[3,4-dihydro-3-(pyrrolidin-1-yl)-2H-benzopyran-4-yl]benzeneacetamide hydrochloride]	36.	1.7	
COc1cccc2c1CC[C@@H](N1CC=CC1)[C@@H]2N(C)C(=O)Cc1ccc(Cl)c(Cl)c1.Cl (relative stereo) [Example 50, trans-3,4-dichloro-N-methyl-N-[2-(2,5-dihydro-1H-pyrrol-1-yl)-5-methoxy-1,2,3,4-tetrahydronaphth-1-yl]benzeneacetamide hydrochloride]	3.4	0.24	
COc1cccc2c1OC[C@@H](N1CCCC1)[C@@H]2N(C)C(=O)Cc1ccc(Cl)c(Cl)c1.Cl (relative stereo) [Example 20, trans-3,4-dichloro-N-methyl-N-[3,4-dihydro-8-methoxy-3-(pyrrolidin-1-yl)-2H-benzopyran-4yl]benzeneacetamide hydrochloride]	30.	1.2	
COCOc1cccc2c1CC[C@@H](N1CCCC1)[C@@H]2N(C)C(=O)Cc1ccc(Cl)c(Cl)c1 (relative stereo) [Example 48]	13.	4.5	
CN(C(=O)Cc1ccc(Br)cc1)[C@@H]1c2ccccc2CC[C@H]1N1CCCC1 (relative stereo) [Example 10]	54.	8.1	
COCc1c(O)ccc2c1CC[C@@H](N1CCCC1)[C@@H]2N(C)C(=O)Cc1ccc(Cl)c(Cl)c1 (relative stereo) [Example 25]	54.	0.19	
CN(C(=O)Cc1ccccc1)[C@@H]1c2ccccc2CC[C@H]1N1CCCC1 (relative stereo) [Example 11]	> 81.	30.	
CN(C(=O)Cc1ccc(Cl)c(Cl)c1)[C@@H]1c2ccccc2OC[C@H]1N1CCCC1 (relative stereo) [Example 7, trans-3,4-Dichloro-N-methyl-N-[3,4-dihydro-3-(pyrrolidin-1-yl)-2H-benzopyran-4-yl]benzeneacetamide]	36	1.7	
CN1CC[C@]23c4c5ccc(O)c4O[C@H]2[C@@H](O)C=C[C@H]3[C@H]1C5 [Morphine]	3.8	1.0	increase in urine flow, in words (kappa receptor [2]): largely devoid of this property; % increase over control (urine output) (kappa receptor [3]): 48%; increase in urine flow / diuresis, in words (kappa receptor [3]): minimal or no diuresis; mean cumulative urine output at 5 hours (kappa receptor [3]): 1.38 mL; % increase over control (urine output) (kappa receptor [3]; sc): 159%; mean cumulative urine output at 5 hours (kappa receptor [3]; sc): 2.41 mL; toxicity / deaths (kappa receptor [3]; sc): Toxic (2/8 dead)
CN(C(=O)Cc1ccc(Cl)c(Cl)c1)[C@@H]1c2cccc(OC(=O)c3ccccc3)c2CC[C@H]1N1CCCC1.Cl (relative stereo) [Example 16, trans-3,4-dichloro-N-methyl-N-[2-(pyrrolidin-1-yl)-5-benzoyloxy-1,2,3,4-tetrahydronaphth-1-yl]benzeneacetamide hydrochloride]	10.	0.71	
CN(C)C(=S)Oc1cccc2c1CC[C@@H](N1CCCC1)[C@@H]2N(C)C(=O)Cc1ccc(Cl)c(Cl)c1.Cl (relative stereo) [Example 68, trans-3,4-dichloro-N-methyl-N-[2-(pyrrolidin-1-yl)-5-(N,N-dimethylthiocarbamoyloxy)-1,2,3,4-tetrahydronaphth-1-yl]benzeneacetamide hydrochloride]	18.	1.7	
